According to patent US10799540B2, “Faecalibacterium longum and application thereof” (BGI SHENZHEN, priority 2016, dated 2020):
Marks after values point to notes of the source that are not given here.

Experiments:
T2D model mice [1] = assay: Body weight change of T2D model mice treated by gavage for 2 months; assay type: in vivo, C57bL/6 mice; details: intragastric treatment
T2D model mice [2] = assay: Fasting blood glucose (FBG) in T2D model mice; assay type: in vivo, C57bL/6 mice
T2D model mice [3] = assay: Glucose tolerance (OGTT) in T2D model mice; assay type: in vivo, C57bL/6 mice; details: before sacrifice
T2D model mice [4] = assay: Serum blood lipids in T2D model mice at end of experiment; details: after 2 months of treatment

With `CN(C)C(=N)N=C(N)N` [Metformin, metformin] the body weight (T2D model mice [1]; 1 week) was 21.54 g, the body weight (T2D model mice [1]; 3 weeks) was 23.42 g and the body weight (T2D model mice [1]; 5 weeks) was 25.23 g. For the same compound, the body weight (T2D model mice [1]; 7 weeks) was 26.6 g, the body weight (T2D model mice [1]; 9 weeks) was 27.49* g and the fasting blood glucose (T2D model mice [2]; week five) was 14.6 mmol/L. The fasting blood glucose (T2D model mice [2]; week nine) was 9.8** mmol/L, the fasting blood glucose (T2D model mice [2]; week one) was 16.7 mmol/L and the fasting blood glucose (T2D model mice [2]; week seven) was 12.1* mmol/L. For the same compound, the fasting blood glucose (T2D model mice [2]; week three) was 15.8 mmol/L, the “blood glucose in glucose tolerance test (OGTT)” value (“blood glucose … (OGTT)” for short) (T2D model mice [3]; 0 min after glucose gavage) was 9.2 mmol/L and the “blood glucose … (OGTT)” value (T2D model mice [3]; 30 min after glucose gavage) was 19.5 mmol/L. The “blood glucose … (OGTT)” value (T2D model mice [3]; 60 min after glucose gavage) was 16.1 mmol/L, the “blood glucose … (OGTT)” value (T2D model mice [3]; 90 min after glucose gavage) was 10.9* mmol/L and the “blood glucose … (OGTT)” value (T2D model mice [3]; 120 min after glucose gavage) was 10.1* mmol/L. For the same compound, the “blood glucose … (OGTT)” value (T2D model mice [3]; 120 min after glucose gavage, listed as metformin) was 9.8 mmol/L, the “HDLC (high-density lipoprotein)” value (T2D model mice [4]) was 3.023* mmol/L and the “LDLC (low density lipoprotein)” value (T2D model mice [4]) was 1.533* mmol/L. The “TC (total cholesterol)” value (T2D model mice [4]) was 5.923 mmol/L and the “TG (triglyceride)” value (T2D model mice [4]) was 1.565 mmol/L.
